Experiments:
Type in all cases: biochemical
KRAS G12D = target: T1, KRAS G12D (Homo sapiens, UniProt P01116, G12D); assay: HTRF KRAS-SOS1 interaction assay, KRAS G12D; details: binned ≤2 μM / >2 μM, read-out: Inhibition of KRAS G12D (IC50)
T1 construct: made in house; host or cells: E. coli, e.g. BL21 (DE3)
From the text: (§1) This assay can be also used to assess a selective inhibition or reduction of signaling output of a mutant Ras protein relative to a wildtype, or relative to a different mutant Ras protein. For example, the equilibrium interaction of wildtype KRAS or K-Ras mutant (e.g., wildtype or a mutant thereof) with SOS1 (e.g., hSOS1) can be assessed as a proxy or an indication for the ability of a subject compound to bind and inhibit Ras protein. The HTRF assay detects from (i) a fluorescence resonance energy transfer (FRET) donor (e.g., antiGST-Europium) that is bound to GST-tagged K-Ras mutant to (ii) a FRET acceptor (e.g., anti-6His-XL665) bound to a His-tagged hSOS1.
(§2) The assay buffer can contain ˜5 mM HEPES pH 7.4, ˜150 mM NaCl, ˜1 mM DTT, 0.05% BSA and 0.0025% (v/v) Igepal. A Ras working solution is prepared in an assay buffer containing typically a suitable amount of the protein construct (e.g., GST-tagged K-Ras mutant) and the FRET donor (e.g., antiGST-Eu (K) from Cisbio, France). A SOS1 working solution is prepared in an assay buffer containing suitable amount of the protein construct (e.g., His-hSOS1) and the FRET acceptor (e.g., anti-6His-XL665 from Cisbio, France). A suitable amount of the protein construct will depend on the range of activity or range of IC50 values being detected or under investigation. For detecting an IC50 within a range of 500 nM, the protein constructs of the same range of molarity can be utilized.
(§3) A fixed volume of DMSO with or without test compound is transferred into a 384-well plate. Ras working solution is added to all wells of the test plate. SOS1 working solution is added to all wells except for those that are subsequently filled with inhibitor control solution. Upon incubation for about 10 minutes or longer, the fluorescence is measured with a M1000Pro plate reader (Tecan) using HTRF detection (excitation 337 nm, emission 1:620 nm, emission 2:665 nm). Compounds are tested in duplicate at different concentrations (for example, 10 μM, 2.5 μM, 0.63 μM, 0.16 μM, 0.04 μM, 0.01 μM test compound). The ratiometric data (i.e., emission 2 divided by emission 1) is used to calculate IC50 values against Ras using GraphPad Prism (GraphPad software). Signaling output measured in terms of IC50 values can be obtained and a ratio of IC50 against one mutant relative to another mutant can be calculated.

KRAS WT = target: T2, KRAS WT (Homo sapiens, UniProt P01116); assay: HTRF KRAS-SOS1 interaction assay, wildtype KRAS; details: binned ≤2 μM / >2 μM, read-out: Inhibition of KRAS WT (IC50)
T2 construct: made in house; host or cells: E. coli, e.g. BL21 (DE3)
From the text: as §1, §2, §3

KRAS G12V = target: T3, KRAS G12V (Homo sapiens, UniProt P01116, G12V); assay: HTRF KRAS-SOS1 interaction assay, KRAS G12V; details: binned ≤2 μM / >2 μM, read-out: Inhibition of KRAS G12V (IC50)
T3 construct: made in house; host or cells: E. coli, e.g. BL21 (DE3)
From the text: as §1, §2, §3

KRAS G12S = target: T4, KRAS G12S (Homo sapiens, UniProt P01116, G12S); assay: HTRF KRAS-SOS1 interaction assay, KRAS G12S; details: binned ≤2 μM / >2 μM, read-out: Inhibition of KRAS G12S (IC50)
T4 construct: made in house; host or cells: E. coli, e.g. BL21 (DE3)
From the text: as §1, §2, §3

Measured: IC50

T4 sequence (P01116 1-188 isoform P01116-2 G12S): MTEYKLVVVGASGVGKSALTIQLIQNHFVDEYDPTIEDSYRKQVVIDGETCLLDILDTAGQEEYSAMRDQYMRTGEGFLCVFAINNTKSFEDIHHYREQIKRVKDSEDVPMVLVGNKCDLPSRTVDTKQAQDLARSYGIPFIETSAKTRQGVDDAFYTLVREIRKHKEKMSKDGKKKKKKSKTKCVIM
T1 sequence (P01116 1-188 isoform P01116-2 G12D): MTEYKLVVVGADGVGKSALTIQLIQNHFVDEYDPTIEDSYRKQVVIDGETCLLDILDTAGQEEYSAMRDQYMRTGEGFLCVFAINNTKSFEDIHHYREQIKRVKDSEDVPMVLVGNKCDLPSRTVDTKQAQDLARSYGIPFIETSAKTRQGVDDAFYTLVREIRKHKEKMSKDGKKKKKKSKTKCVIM
T3 sequence (P01116 1-188 isoform P01116-2 G12V): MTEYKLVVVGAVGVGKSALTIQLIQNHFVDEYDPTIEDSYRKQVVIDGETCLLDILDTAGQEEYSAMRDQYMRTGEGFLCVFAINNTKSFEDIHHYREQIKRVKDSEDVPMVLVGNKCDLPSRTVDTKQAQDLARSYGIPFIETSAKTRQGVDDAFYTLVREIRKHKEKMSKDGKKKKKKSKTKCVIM
T2 sequence (P01116 1-188 isoform P01116-2): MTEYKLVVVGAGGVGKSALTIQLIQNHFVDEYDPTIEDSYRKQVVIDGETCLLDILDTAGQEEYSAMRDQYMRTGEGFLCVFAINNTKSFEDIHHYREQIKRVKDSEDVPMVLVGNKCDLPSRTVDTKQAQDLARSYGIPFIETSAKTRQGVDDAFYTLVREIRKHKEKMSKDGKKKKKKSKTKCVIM

C[C@H](c1cccnc1N)N1C[C@H](C)Oc2c(C(F)(F)F)c(-c3ccc(F)c4sc(N)c(C#N)c34)c(F)c3nc(OC[C@@]45CCCN4C[C@H](F)C5)nc1c23 (single isomer, unassigned) [Compound 697]
≤ 2000 nM: all assays above

C[C@@H]1CN(CC2(COc3nc4c5c(c(C(F)(F)F)c(-c6ccc(F)c7sc(N)c(C#N)c67)c(F)c5n3)OCCN4[C@H](C)c3cccnc3N)CC2)CCO1 (single isomer, unassigned) [Compound 826]
> 2000 nM: all assays above

C[C@@H]1COCCN1CC1(COc2nc3c4c(c(C(F)(F)F)c(-c5ccc(F)c6sc(N)c(C#N)c56)c(F)c4n2)OCCN3[C@H](C)c2cccnc2N)CC1 (single isomer, unassigned) [Compound 807]
> 2000 nM: all assays above

N#Cc1c(N)sc2c(F)ccc(-c3c(Cl)c4c5c(nc(OC[C@@]67CCCN6C[C@H](F)C7)nc5c3F)N([C@@H](c3cccnc3N)C(F)(F)F)CCO4)c12 [Compound 833, 2-amino-4-(4-((S)-1-(2-aminopyridin-3-yl)-2,2,2-trifluoroethyl)-8-chloro-10-fluoro-2-(((2R,7aS)-2-fluorotetrahydro-1H-pyrrolizin-7a(5H)-yl)methoxy)-5,6-dihydro-4H-[1,4]oxazepino[5,6,7-de]quinazolin-9-yl)-7-fluorobenzo[b]thiophene-3-carbonitrile]
≤ 2000 nM: all assays above

C=C1CN2CCC[C@@]2(COc2nc3c4c(c(C(F)(F)F)c(-c5ccc(F)c6sc(N)c(C#N)c56)c(F)c4n2)OCCN3[C@H](C)c2cccnc2N)C1 [Compound 621, 2-amino-4-(4-((R)-1-(2-aminopyridin-3-yl)ethyl)-10-fluoro-2-(((S)-2-methylenetetrahydro-1H-pyrrolizin-7a(5H)-yl)methoxy)-8-(trifluoromethyl)-5,6-dihydro-4H-[1,4]oxazepino[5,6,7-de]quinazolin-9-yl)-7-fluorobenzo[b]thiophene-3-carbonitrile]
≤ 2000 nM: all assays above

CO[C@H]1CCN(C)[C@@H]1[C@H](C)Oc1nc2c3c(c(C(F)(F)F)c(-c4ccc(F)c5sc(N)c(C#N)c45)c(F)c3n1)OCCN2[C@H](C)c1cccnc1N [Compound 665, 2-amino-4-(4-((R)-1-(2-aminopyridin-3-yl)ethyl)-10-fluoro-2-((S)-1-((2R,3S)-3-methoxy-1-methylpyrrolidin-2-yl)ethoxy)-8-(trifluoromethyl)-5,6-dihydro-4H-[1,4]oxazepino[5,6,7-de]quinazolin-9-yl)-7-fluorobenzo[b]thiophene-3-carbonitrile]
≤ 2000 nM: all assays above

Cc1c(F)c(N)cc(-c2nc3c4c(nc(O[C@@H](C)C5CCCN5C)nc4c2F)N([C@H](C)c2cccnc2N)CCO3)c1C(F)(F)F (single isomer, unassigned) [Compound 748]
≤ 2000 nM: all assays above

CC[S+]([O-])[C@@H]1CN2CCC[C@@]2(COc2nc3c4c(c(Cl)c(-c5ccc(F)c6sc(N)c(C#N)c56)c(F)c4n2)OCCN3[C@H](C)c2cccnc2N)C1 (mixture of isomers) [Compound 780, 2-amino-4-(4-((R)-1-(2-aminopyridin-3-yl)ethyl)-8-chloro-2-(((2S,7aS)-2-(ethylsulfinyl)tetrahydro-1H-pyrrolizin-7a(5H)-yl)methoxy)-10-fluoro-5,6-dihydro-4H-[1,4]oxazepino[5,6,7-de]quinazolin-9-yl)-7-fluorobenzo[b]thiophene-3-carbonitrile]
≤ 2000 nM: all assays above

C[C@H](c1cc(Cl)cnc1N)N1CCOc2c(C(F)(F)F)c(-c3ccc(F)c4sc(N)c(C#N)c34)c(F)c3nc(OC[C@@]45CCCN4C[C@H](F)C5)nc1c23 (single isomer, unassigned) [Compound 702]
> 2000 nM: all assays above

C[C@H](c1cncnc1N)N1CCOc2c(C(F)(F)F)c(-c3ccc(F)c4sc(N)c(C#N)c34)c(F)c3nc(OCC4(CN5CCC(=CF)CC5)CC4)nc1c23 [Compound 916, 2-amino-4-(4-((R)-1-(4-aminopyrimidin-5-yl)ethyl)-10-fluoro-2-((1-((4-(fluoromethylene)piperidin-1-yl)methyl)cyclopropyl)methoxy)-8-(trifluoromethyl)-5,6-dihydro-4H-[1,4]oxazepino[5,6,7-de]quinazolin-9-yl)-7-fluorobenzo[b]thiophene-3-carbonitrile]
≤ 2000 nM: all assays above

C[C@H](c1cccnc1N)N1CCOc2c(Cl)c(-c3ccc(F)c4sc(N)c(C#N)c34)c(F)c3nc(OCC45CCCN4C[C@H](OCCCP(C)(C)=O)C5)nc1c23 (single isomer, unassigned) [Compound 677]
≤ 2000 nM: KRAS WT | KRAS G12V | KRAS G12S

C[C@H]1CN([C@@H](c2cccnc2N)C(F)F)c2nc(OC[C@@]34CCCN3C[C@H](F)C4)nc3c(F)c(-c4ccc(F)c5sc(N)c(C#N)c45)c(C(F)(F)F)c(c23)O1 (single isomer, unassigned) [Compound 879]
≤ 2000 nM: KRAS WT | KRAS G12V | KRAS G12S

N#Cc1c(N)sc2c(F)ccc(-c3c(Cl)c4c5c(nc(OC[C@@]67CCCN6C[C@H](F)C7)nc5c3F)N(C(C=C(F)F)c3cccnc3N)CCO4)c12 (single isomer, unassigned) [Compound 655]
≤ 2000 nM: KRAS WT | KRAS G12V | KRAS G12S

CC(c1cccnc1N)N1CCOc2c(Cl)c(-c3ccc(F)c4sc(N)c(C#N)c34)c(F)c3nc(OC[C@@]45CCCN4C[C@H](F)C5)nc1c23 (single isomer, unassigned) [Compound 656]
≤ 2000 nM: KRAS WT | KRAS G12V | KRAS G12S

C=Cc1c(-c2ccc(F)c3sc(N)c(C#N)c23)c(F)c2nc(OC[C@@]34CCCN3C[C@H](F)C4)nc3c2c1OCCN3[C@H](C)c1cccnc1N (single isomer, unassigned) [Compound 603]
≤ 2000 nM: KRAS WT | KRAS G12V | KRAS G12S

CN(C)CC[C@H](c1cccnc1N)N1CCOc2c(C(F)(F)F)c(-c3ccc(F)c4sc(N)c(C#N)c34)c(F)c3nc(OC[C@@]45CCCN4C[C@H](F)C5)nc1c23 (single isomer, unassigned) [Compound 669]
≤ 2000 nM: KRAS WT | KRAS G12V | KRAS G12S

N#Cc1c(N)sc2c(F)ccc(-c3c(C(F)(F)F)c4c5c(nc(OC[C@@]67CCCN6C[C@H](F)C7)nc5c3F)N([C@H](CCC3CCOCC3)c3cccnc3N)CCO4)c12 (single isomer, unassigned) [Compound 611]
≤ 2000 nM: KRAS WT | KRAS G12V | KRAS G12S

C[C@H](c1cccnc1N)N1CCOc2c(C(F)(F)F)c(-c3ccc(F)c4sc(N)c(C#N)c34)c(F)c3nc(OC[C@@]45CCCN4CC(C#N)C5)nc1c23 (single isomer, unassigned) [Compound 663]
≤ 2000 nM: KRAS WT | KRAS G12V | KRAS G12S

CS(=O)(=O)CCC[C@H](c1cccnc1N)N1CCOc2c(C(F)(F)F)c(-c3ccc(F)c4sc(N)c(C#N)c34)c(F)c3nc(OC[C@@]45CCCN4C[C@H](F)C5)nc1c23 (single isomer, unassigned) [Compound 629]
≤ 2000 nM: KRAS WT | KRAS G12V | KRAS G12S

C[C@H](c1ccc(F)nc1N)N1CCOc2c(C(F)(F)F)c(-c3ccc(F)c4sc(N)c(C#N)c34)c(F)c3nc(OC[C@@]45CCCN4C[C@H](F)C5)nc1c23 (single isomer, unassigned) [Compound 628]
≤ 2000 nM: KRAS WT | KRAS G12V | KRAS G12S

Reference: patent US12668600B2 (Kumquat Biosciences Inc., priority 2023, dated 2026)
